The test system of experiment [1] is human skin fibroblasts. The experiment can be described thus: Skin fibroblast proliferation. Type of experiment: cell-based. Particulars: at higher concentrations. As for the experimental part: (§1) Fibroblasts were plated on day zero and allowed to attach. One day later, the cells were washed and then treated with control culture medium with or without test compound. Cells were harvested and counted on day-3. The culture medium was then assayed via Western blot analysis to determine expression levels of MMP-1.

Experiment [2] concerns MMP-1 expression in skin fibroblasts. The experiment can be described thus: MMP-1 expression in skin fibroblasts (Western blot). It counts as cell-based, human. The method, then:
as §1
On the technique in general: A western blot detects proteins with antibodies after separation by electrophoresis.

In experiment [3] the test system is human keratinocytes. As to the kind of experiment: Keratinocyte proliferation assay. It counts as cell-based. The method, then:
Compounds of the Invention were assayed for their ability to inhibit the proliferation of human keratinocytes. Namely, keratinocytes were plated on day zero and allowed to attach. One day later, the cells were washed and then treated with control culture medium with or without the test compound. Cells were harvested and counted on day-2. Value for the time-zero control was determined (mean and standard deviation based on triplicate experiments with n=9 data points). The untreated control value at day 2 was then determined (mean and standard deviation based on triplicate experiments with n=12 data points). All of the values from treated samples were compared to the control values and are expressed as the change from control±the standard deviation based on the three experiments.

The target in experiment [4] is ERK-2 kinase (Homo sapiens, UniProt P28482). As to the kind of experiment: Assay against ERK-2 (33-P ATP, myelin basic protein substrate). As to conditions: non-labeled ATP 1 μM, 22° C. It counts as biochemical. As for the experimental part: Compounds of the invention were assayed for ability to inhibit ERK-2 kinase using a 33-P radio-ligand binding assay. 33-P labeled ATP was used as the radio-ligand and myelin basic protein was used as the substrate. A non-labeled ATP concentration of 1 μM was used. Plates were incubated at 22° C. before isolation and radioactivity determination by scintillation counting. The IC50 values (concentration causing a half-maximal inhibition) and Hill coefficients (nH) were determined by non-linear regression analysis of competition curves generated with 10 data points using Hill equation curve fitting.

Structures can show the parent of a compound that is named as a salt.

ERK-2 kinase, sequence (P28482 whole entry): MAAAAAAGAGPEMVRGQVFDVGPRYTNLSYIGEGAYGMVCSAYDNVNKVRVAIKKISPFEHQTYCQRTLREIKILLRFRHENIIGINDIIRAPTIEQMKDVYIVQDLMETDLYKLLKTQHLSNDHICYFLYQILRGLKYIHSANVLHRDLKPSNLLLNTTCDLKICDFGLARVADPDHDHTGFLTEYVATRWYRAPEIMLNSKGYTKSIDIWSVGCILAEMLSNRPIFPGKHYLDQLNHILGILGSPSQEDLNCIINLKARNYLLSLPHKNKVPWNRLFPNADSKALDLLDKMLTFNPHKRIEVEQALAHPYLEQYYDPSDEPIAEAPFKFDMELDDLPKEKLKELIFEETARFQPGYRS

Usually inhibition stands for the drop in the measured response relative to a control, in per cent. The term IC50 denotes the midpoint of a concentration-inhibition curve. Regarding `Cl.Clc1cccc(-c2cn[nH]c2-c2c[nH]c3ncccc23)c1` [Example 1, 3-[4-(3-Chlorophenyl)-2H-pyrazol-3-yl]-1H-pyrrolo[2,3-b]pyridine Hydrochloride], the “effect on fibroblast proliferation” value in experiment [1] was “minimal effect”. Besides, in experiment [2] (5 μg/mL, culture medium, day-3, Western blot), the MMP-1 expression result was “significantly inhibited”. In addition, the “collagenase (MMP-1) production” value in experiment [2] (at higher concentrations, Western blot) was “significant reduction”. Moreover, the GI50 in experiment [3] (calculated from Table 2 data, read-out: GI50 (inhibition of keratinocyte proliferation)) is 4.36 µM. Further, the inhibition at 0.03 µM in experiment [3] (test concentration 0.03 μM, cells counted on day-2, change from control) was -20%. For the same molecule, the inhibition at 0.15 µM in experiment [3] (test concentration 0.15 μM, cells counted on day-2, change from control) is -13%. The inhibition at 0.3 µM in experiment [3] (test concentration 0.30 μM, cells counted on day-2, change from control) was -6%. The inhibition at 1.51 µM in experiment [3] (test concentration 1.51 μM, cells counted on day-2, change from control) was found to be 8%. Also, in experiment [3] (test concentration 3.02 μM, cells counted on day-2, change from control), the inhibition at 3.02 µM worked out at 21%. Further, the inhibition at 6.04 µM in experiment [3] (test concentration 6.04 μM, cells counted on day-2, change from control) amounted to 72%. The inhibition at 15.1 µM in experiment [3] (test concentration 15.1 μM, cells counted on day-2, change from control) was 118%. In experiment [4], this molecule returned an IC50 of 1.43 µM.

For the molecule `c1ccc(-c2cn[nH]c2-c2c[nH]c3ncccc23)cc1` [Example 2, 3-[4-Phenyl-2H-pyrazol-3-yl]-1H-pyrrolo[2,3-b]pyridine Hydrochloride], in experiment [4], half-maximal inhibition (IC50) required 9.86 µM.

In experiment [4], `Clc1cccc(-c2cn[nH]c2-c2c[nH]c3nc(NCc4ccccc4)ccc23)c1` [Example 3, Benzyl-{3-[4-(3-chlorophenyl)-2H-pyrazol-3-yl]-1H-pyrrolo[2,3-b]pyridin-6-yl}amine Dihydrochloride] yielded a concentration for half-maximal inhibition (IC50) of 2.23 µM.

Turning to `c1ccc(CNc2ccc3c(-c4[nH]ncc4-c4ccccc4)c[nH]c3n2)cc1` [Example 4, Benzyl-[3-(4-phenyl-2H-pyrazol-3-yl)-1H-pyrrolo[2,3-b]pyridin-6-yl]amine], the IC50 in experiment [4] is 11.3 µM.
